Measurements: the supplement of paper PMC10307832

Assays:
Assay in all cases: relative viability (nuclei count vs DMSO), 5 days (fraction); higher = more cells survive
CAL-12T = tested on: CAL-12T
Procedure, shortened: (§1)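 Relative viability divides the nuclei count in treated wells by that in vehicle wells. Lung cancer cell lines were seeded in 1536-well plates, dosed by pin tool the next day, and fixed and stained after 5 days in one step with final 0.05% Triton X-100, 1% formaldehyde and 1 ug/ml Hoechst. Dosing was a single drug or a fixed anchor-drug dose plus five library-drug doses (not always all listed) in √10 steps, and values are medians of duplicate plates imaged at 4×.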

COR-L 105 = tested on: COR-L 105
Procedure, shortened: as §1

H3255 = tested on: H3255
Procedure, shortened: as §1

HARA = tested on: HARA
Procedure, shortened: as §1

HCC-15 = tested on: HCC-15
Procedure, shortened: as §1

HCC-366 = tested on: HCC-366
Procedure, shortened: as §1

LC-2-ad = tested on: LC-2-ad
Procedure, shortened: as §1

LU99A = tested on: LU99A
Procedure, shortened: as §1

NCI-H1395 = tested on: NCI-H1395
Procedure, shortened: as §1

NCI-H1666 = tested on: NCI-H1666
Procedure, shortened: as §1

NCI-H1734 = tested on: NCI-H1734
Procedure, shortened: as §1

NCI-H1944 = tested on: NCI-H1944
Procedure, shortened: as §1

Compound: O=C(O)CCCCC(CCSCc1ccccc1)SCc1ccccc1 (stereo unspecified) [CPI-613] + COc1cccc2cc(-c3nc([C@H]4CC[C@H](C(=O)O)CC4)n4ncnc(N)c34)[nH]c12 [OSI-027] (partner 0.5 µM)
- relative viability (CAL-12T; first compound 5 µM): 0.739
- relative viability (CAL-12T; first compound 15.81 µM): 0.515
- relative viability (CAL-12T; first compound 50 µM): 0.593
- relative viability (CAL-12T; first compound 158.11 µM): 0.0379
- relative viability (CAL-12T; first compound 500 µM): 0.0106
- relative viability (COR-L 105; first compound 5 µM): 0.605
- relative viability (COR-L 105; first compound 15.81 µM): 0.407
- relative viability (COR-L 105; first compound 50 µM): 0.49
- relative viability (COR-L 105; first compound 158.11 µM): 0.319
- relative viability (COR-L 105; first compound 500 µM): 0.105
- relative viability (H3255; first compound 5 µM): 0.569
- relative viability (H3255; first compound 15.81 µM): 0.501
- relative viability (H3255; first compound 50 µM): 0.612
- relative viability (H3255; first compound 500 µM): 0.471
- relative viability (HARA; first compound 15.81 µM): 0.482
- relative viability (HARA; first compound 50 µM): 0.387
- relative viability (HARA; first compound 158.11 µM): 0.188
- relative viability (HARA; first compound 500 µM): 0.0367
- relative viability (HCC-15; first compound 5 µM): 0.552
- relative viability (HCC-15; first compound 15.81 µM): 0.602
- relative viability (HCC-15; first compound 50 µM): 0.586
- relative viability (HCC-15; first compound 158.11 µM): 0.364
- relative viability (HCC-15; first compound 500 µM): 0.0388
- relative viability (HCC-366; first compound 5 µM): 0.924
- relative viability (HCC-366; first compound 15.81 µM): 0.787
- relative viability (HCC-366; first compound 50 µM): 1.08
- relative viability (HCC-366; first compound 158.11 µM): 0.244
- relative viability (HCC-366; first compound 500 µM): 0.0116
- relative viability (LC-2-ad; first compound 5 µM): 0.893
- relative viability (LC-2-ad; first compound 15.81 µM): 0.744
- relative viability (LC-2-ad; first compound 50 µM): 0.8
- relative viability (LC-2-ad; first compound 158.11 µM): 0.505
- relative viability (LC-2-ad; first compound 500 µM): 0.0505
- relative viability (LU99A; first compound 5 µM): 0.29
- relative viability (LU99A; first compound 15.81 µM): 0.279
- relative viability (LU99A; first compound 50 µM): 0.262
- relative viability (LU99A; first compound 158.11 µM): 0.24
- relative viability (LU99A; first compound 500 µM): 0.0972
- relative viability (NCI-H1395; first compound 5 µM): 0.67
- relative viability (NCI-H1395; first compound 15.81 µM): 0.602
- relative viability (NCI-H1395; first compound 50 µM): 0.668
- relative viability (NCI-H1395; first compound 158.11 µM): 0.694
- relative viability (NCI-H1395; first compound 500 µM): 0.568
- relative viability (NCI-H1666; first compound 5 µM): 0.866
- relative viability (NCI-H1666; first compound 15.81 µM): 0.856
- relative viability (NCI-H1666; first compound 50 µM): 0.798
- relative viability (NCI-H1666; first compound 158.11 µM): 0.281
- relative viability (NCI-H1666; first compound 500 µM): 0.151
- relative viability (NCI-H1734; first compound 5 µM): 0.58
- relative viability (NCI-H1734; first compound 15.81 µM): 0.55
- relative viability (NCI-H1734; first compound 50 µM): 0.571
- relative viability (NCI-H1734; first compound 158.11 µM): 0.325
- relative viability (NCI-H1734; first compound 500 µM): 0.1
- relative viability (NCI-H1944; first compound 5 µM): 0.391
- relative viability (NCI-H1944; first compound 15.81 µM): 0.388
- relative viability (NCI-H1944; first compound 50 µM): 0.351
